Experiments:
[1] = tested on: Rabbit Psoas myofibrils (skeletal myosin ATPase); assay: Myofibril ATPase assay, rabbit psoas (skeletal) myofibrils; assay type: biochemical; conditions: rabbit psoas myofibrils
Summary of the method: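 Rabbit psoas skeletal myofibrils in PIPES/CaCl2/EGTA pCa buffer, pH 7.0. ATPase rate followed by PK-LDH-coupled NADH loss at 340 nm, read every 1.5–2 min for 75 min. Slopes normalized to vehicle (100%) and fitted to a 4-parameter logistic; values are Y75 (25% inhibition) or Y125 (25% activation) concentrations.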

[2] = tested on: Porcine atria myofibrils (atrial myosin ATPase); assay: Myofibril ATPase assay, porcine atria myofibrils; assay type: biochemical; conditions: porcine atria myofibrils
Summary of the method: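 Coupled PK-LDH reaction links ADP from myosin ATPase to NADH loss, read at 340 nm every 1.5-2 min for 75 min. Slopes (mAU/min) normalized to vehicle-only wells (100%) and fit to a 4-parameter logistic; Y75 is the concentration cutting activity by 25%, Y125 is reported for activators.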

[3] = target: T1, Porcine ventricle myofibrils (ventricular myosin ATPase) (Sus scrofa, UniProt P79293); assay: Myofibril ATPase assay, porcine ventricle myofibrils; assay type: biochemical, porcine (Yucatan minipigs); conditions: porcine ventricle myofibrils
T1 construct: Myofibrils from porcine cardiac muscle was isolated from the left ventricle of Yucatan minipigs; tissue Exemplar Genetics; host or cells: left ventricle of Yucatan minipigs, myofibrils prepared in house
Summary of the method: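 Myofibrils isolated from Yucatan minipig left ventricle; coupled PK/LDH NADH assay, pCa buffer pH 7.0, kinetic A340 reads over 75 min. Vehicle-normalized slopes fit 4PL; Y75/Y125 derived.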

[4] = Y75 value (75% activity relative to no compound)

T1 sequence (P79293 whole entry): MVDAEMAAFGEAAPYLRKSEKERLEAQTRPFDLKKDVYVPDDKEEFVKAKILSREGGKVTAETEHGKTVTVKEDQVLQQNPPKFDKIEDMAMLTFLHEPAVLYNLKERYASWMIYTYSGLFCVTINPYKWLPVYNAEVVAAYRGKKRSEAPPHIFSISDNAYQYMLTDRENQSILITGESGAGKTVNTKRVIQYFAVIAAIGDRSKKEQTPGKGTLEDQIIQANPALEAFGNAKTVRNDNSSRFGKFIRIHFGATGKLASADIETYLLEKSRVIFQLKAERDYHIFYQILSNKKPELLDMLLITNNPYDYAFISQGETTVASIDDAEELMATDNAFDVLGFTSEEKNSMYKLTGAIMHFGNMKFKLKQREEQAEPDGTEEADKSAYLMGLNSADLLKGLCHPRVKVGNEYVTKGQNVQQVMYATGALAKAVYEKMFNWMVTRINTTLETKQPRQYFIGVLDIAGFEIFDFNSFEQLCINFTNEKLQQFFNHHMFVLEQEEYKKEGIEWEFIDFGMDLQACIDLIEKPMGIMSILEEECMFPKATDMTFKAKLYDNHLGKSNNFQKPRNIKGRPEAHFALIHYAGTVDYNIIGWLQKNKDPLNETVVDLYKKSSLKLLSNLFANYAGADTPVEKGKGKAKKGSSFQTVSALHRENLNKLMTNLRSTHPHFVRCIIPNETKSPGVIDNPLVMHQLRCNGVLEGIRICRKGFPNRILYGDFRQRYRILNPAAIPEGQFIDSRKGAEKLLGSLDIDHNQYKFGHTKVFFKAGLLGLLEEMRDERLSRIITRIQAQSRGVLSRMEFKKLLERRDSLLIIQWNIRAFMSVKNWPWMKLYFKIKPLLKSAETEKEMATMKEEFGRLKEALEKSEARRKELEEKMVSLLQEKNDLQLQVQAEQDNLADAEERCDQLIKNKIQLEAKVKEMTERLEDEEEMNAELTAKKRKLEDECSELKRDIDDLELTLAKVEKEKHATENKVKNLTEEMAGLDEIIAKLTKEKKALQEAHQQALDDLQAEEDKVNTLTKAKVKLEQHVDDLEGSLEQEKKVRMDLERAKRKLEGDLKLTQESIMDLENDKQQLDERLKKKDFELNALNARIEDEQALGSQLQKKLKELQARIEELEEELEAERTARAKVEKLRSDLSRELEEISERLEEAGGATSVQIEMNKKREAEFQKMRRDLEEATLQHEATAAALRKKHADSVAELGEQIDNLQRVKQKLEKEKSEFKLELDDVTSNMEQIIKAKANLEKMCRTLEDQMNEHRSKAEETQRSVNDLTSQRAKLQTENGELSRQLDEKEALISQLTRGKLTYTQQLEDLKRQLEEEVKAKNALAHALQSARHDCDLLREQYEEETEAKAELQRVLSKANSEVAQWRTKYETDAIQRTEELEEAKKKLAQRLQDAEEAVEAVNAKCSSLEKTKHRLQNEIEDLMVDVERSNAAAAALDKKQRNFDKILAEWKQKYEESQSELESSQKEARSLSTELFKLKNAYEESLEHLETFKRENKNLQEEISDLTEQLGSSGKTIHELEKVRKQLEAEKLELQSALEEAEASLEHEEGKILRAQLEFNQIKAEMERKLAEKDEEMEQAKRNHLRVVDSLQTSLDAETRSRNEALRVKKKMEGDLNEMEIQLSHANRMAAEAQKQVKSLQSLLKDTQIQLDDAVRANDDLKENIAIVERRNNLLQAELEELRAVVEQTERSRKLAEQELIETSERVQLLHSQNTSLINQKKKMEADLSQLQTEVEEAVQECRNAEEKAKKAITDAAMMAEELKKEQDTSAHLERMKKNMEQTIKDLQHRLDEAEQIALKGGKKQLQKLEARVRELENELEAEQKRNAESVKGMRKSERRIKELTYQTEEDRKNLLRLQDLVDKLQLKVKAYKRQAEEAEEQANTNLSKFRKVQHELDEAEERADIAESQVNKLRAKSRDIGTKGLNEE

Row | Structure (SMILES) | Skeletal EC25 ([1]; Y75 value (no ‡ mark)) [µM] | Atrial EC25 ([2]; Y75 value (no ‡ mark)) [µM] | Ventricular EC25 ([3]; Y75 value (no ‡ mark)) [µM] | Skeletal EC25 ([1]; Y75 value) [µM] | Atrial EC25 [2, 4] [µM] | Ventricular EC25 ([3]; Y75 value) [µM]
1 | O=C(Cc1cc2c(F)c(F)ccc2[nH]c1=O)N[C@@H]1COc2ncccc21 (single isomer, unassigned) [compound 63] | 1.55 | 0.42 | 62.72 |  |  | 
2 | Cc1nccc2[nH]c(=O)c([C@H](C)C(=O)N[C@@H](C)c3ccc(F)cc3F)c(C)c12 (single isomer, unassigned) [compound 398] |  |  |  | 0.23 | 2.73 | 59.63
3 | Cc1c(CC(=O)N[C@@H](C)c2ccc(F)cc2F)c(=O)[nH]c2ccc(F)c(Br)c12 [compound 109] | 0.01 | 0.04 | 0.13 |  |  | 
4 | Cc1c(C(F)(F)C(=O)N[C@H](C)c2cc(C#N)ccn2)c(=O)[nH]c2ccc(F)c(F)c12 (single isomer, unassigned) [compound 2585] | 3.04 | 1.59 | 7.05 |  |  | 
5 | Cc1nccc2[nH]c(=O)c([C@@H](C)C(=O)N[C@@H](C)c3ccc(F)cc3F)c(C(F)(F)F)c12 (single isomer, unassigned) [compound 410] |  |  |  | 0.76 | 5.46 | 100.00
6 | Cc1c(CC(=O)N[C@H](C)c2ccc(F)cc2F)c(=O)[nH]c2ccnc(C(F)(F)F)c12 [compound 270] |  |  |  | 100.00 | 100.00 | 100.00
7 | CC(C(=O)N[C@@H](C)c1ccc(F)cc1F)c1cc2c(C(F)(F)F)nccc2[nH]c1=O (single isomer, unassigned) [compound 3518] |  |  |  | 9.37 | 2.05 | 100.00
8 | Cc1nccc2[nH]c(=O)c(CC(=O)N[C@@H](C)c3ccc(F)cc3F)c(C(F)(F)F)c12 [compound 430] |  |  |  | 0.25 | 0.38 | 11.63
9 | Cc1c([C@@H](Cc2ccccc2)C(=O)N[C@@H](C)c2ccc(F)cc2F)c(=O)[nH]c2ccnc(F)c12 (single isomer, unassigned) [compound 358] |  |  |  | 100.00 | 23.89 | 54.71

Second part, the molecule after the results:

Row | Skeletal EC25 ([1]; Y75 value (no ‡ mark)) [µM] | Atrial EC25 ([2]; Y75 value (no ‡ mark)) [µM] | Ventricular EC25 ([3]; Y75 value (no ‡ mark)) [µM] | Skeletal EC25 ([1]; Y75 value) [µM] | Atrial EC25 [2, 4] [µM] | Ventricular EC25 ([3]; Y75 value) [µM] | Structure (SMILES)
10 |  |  |  | 100.00 | 100.00 | 100.00 | Cc1nccc2[nH]c(=O)c(CC(=O)NC[C@@H](CO)c3ccccc3)c(C)c12 [compound 494]
11 |  |  |  | 5.72 | 100.00 | 100.00 | Cc1nccc2[nH]c(=O)c(CC(=O)N[C@@H]3CCc4cc(C#N)cnc43)c(C)c12 (single isomer, unassigned) [compound 233]
12 |  |  |  | 2.87 | 8.52 | 11.53 | Cc1nccc2[nH]c(=O)c(CC(=O)N[C@H](CO)c3ccc(C#N)cc3F)c(C)c12 (single isomer, unassigned) [compound 238]
13 |  |  |  | 12.34 | 0.94 | 100.00 | Cc1c(CC(=O)N[C@H](CO)c2ncc(C#N)cc2F)c(=O)[nH]c2cnnc(C#N)c12 [compound 163]
14 |  |  |  | 33.82 | 100.00 | 100.00 | Cc1cnncc1[C@@H](C)NC(=O)Cc1c(C)c2c(C)nccc2[nH]c1=O [compound 480]
15 | 0.06 | 0.12 | 0.39 |  |  |  | Cc1c(F)ccc2[nH]c(=O)c(C(F)(F)C(=O)N[C@H](C)c3ncc(C#N)cn3)c(C)c12 (single isomer, unassigned) [compound 4831]
16 |  |  |  | 0.05 | 0.11 | 1.36 | Cc1c(CC(=O)N[C@H]2c3c(F)cc(F)cc3OC2(C)C)c(=O)[nH]c2ccnc(C#N)c12 (single isomer, unassigned) [compound 187]
17 | 0.05 | 0.14 | 0.12 |  |  |  | Cc1cc(C#N)nnc1[C@H](C)NC(=O)Cc1c(C)c2c(F)c(F)ccc2[nH]c1=O [compound 1136]

Source: patent US12448369B2 (Edgewise Therapeutics, Inc., priority 2023, dated 2025)
